Laboratory results: US11759411B2, “Non-therapeutic use of a biodegradable hydrocarbon oil” (TOTAL MARKETING SERVICES, priority 2017, dated 2023)
Marks after values point to notes of the source that are not given here.

Legend:
HaCaT cells [1] = assay: H2DCF-DA test, production of ROS after oil then preservative (POE or MIT); type: cell-based
Experimental: (§1) The following standards and methods were used to measure the properties hereinabove: • flash point: EN ISO 2719 • density at 15° C.: EN ISO 1185 • viscosity at 40° C.: EN ISO 3104 • aniline point: EN ISO 2977 • boiling point: ASTM D86 • biodegradability: OECD method 306 • refractive index at 20° C.: ASTM D 1218 • vapour pressure: calculated according to methods well known to those skilled in the art Tests for Anti-Wrinkle or Anti-Ageing Cosmetic Applications Preparation of the Tests: • Preparation of the microplates: 24 hours before the incubation with the oils A and B, the HaCaT cells are inoculated with a cell density of 100,000 cells/ml in 96-well microplates (Corning). […]
The cellular effects are evaluated directly on the adherent living cells by cytofluorimetric microtitration (MiFALC tests-Microtitration Fluorimetric Assays on Live Cells). The microplate reader used in the study is the Safire cytometer (Tecan).
The test H2DCF-DA (2′,7′-dihydrodichlorofluoresceine diacetate) is used in order to evaluate the production of reactive oxygen species. […] Thus, an increase in the intensity of fluorescence is combined with an increase in the production of reactive oxygen species (ROS) and by extrapolation with an increase in the oxidative stress in the cells studied.
Preservatives, used as an additive in cosmetic compositions, were evaluated. […]

HaCaT cells [2] = assay: HOECHST 33342 test, condensation of the chromatin; type: cell-based; conditions: one hour with oil or CM, then 20 minutes with BAC 8 ppm by weight, HOECHST 33342, HaCat cells
Experimental: as §1, with “(Corning). The microplates are then placed in the incubator at 37° C. In a microplate, each condition was tested at least three times. Each experiment was carried out at least three times independently in order to validate the reproducibility of the results and to carry out statistical analyses. • Incubation of cells with the oils A or B: two durations of incubation were selected for the products to be tested pure: an incubation for fifteen minutes and an incubation for one hour.” for “(Corning).”
The cellular effects are evaluated directly on the adherent living cells by cytofluorimetric microtitration (MiFALC tests-Microtitration Fluorimetric Assays on Live Cells). The microplate reader used in the study is the Safire cytometer (Tecan). […]

Cn1sccc1=O [MIT, methylisothiazolinone]
Production of ROS (HaCaT cells [1]; oil or none, then MIT): 135 % relative to the CM

benzalkonium chloride [CM + BAC]
Measurement of the condensation of the chromatin (HaCaT cells [2]): 138*** % relative to the CM

phenoxyethanol [CM + POE]
Production of ROS (HaCaT cells [1]; oil or CM (e.g. 15 minutes) then POE (e.g. 30 minutes, phenoxyethanol 250 μg/mL)): 132 % relative to the CM
